According to article PMC5931107, “Clinical pharmacodynamic/exposure characterisation of the multikinase inhibitor ilorasertib (ABT-348) in a phase 1 dose-escalation trial” (British Journal of Cancer, 2018):
Like-named read-outs stand apart in the source and are kept apart here.

Tests used:
[1] = Dose escalation: dose-limiting toxicities and MTD; type: in vivo
Text: Dose escalation was first conducted in Arm I and subsequently in Arms II and III. […] The pre-specified DLT criteria included any of the following events graded according to the Common Terminology Criteria for Adverse Events (CTCAE) version 4.0 considered ‘possibly’ or ‘probably’ related to the administration of ilorasertib in cycle 1: grade 4 absolute neutrophil count (ANC) decrease for >7 days or grade ≥ 3 ANC decrease with fever; grade 4 platelet count decrease; grade ≥ 3 proteinuria; grade 4 infusion reaction; grade ≥ 3 asthenia/fatigue; grade 3 nausea/vomiting for ≥48 h or diarrhoea for ≥72 h despite maximum supportive care; grade ≥ 2 neurotoxicity; unexpected grade 2 toxicity which required dose modification or delay of ≥1 week. Given the known adverse effects of VEGFR2 inhibition, specific criteria for hypertension were included: >150/100 mm Hg despite 2 weeks of clinically appropriate intervention, or severe hypertension at any blood pressure reading defined as systolic >200 mm Hg or diastolic > 110 mm Hg, or symptomatic hypertension at any reading; and for decline in left ventricular ejection fraction included: absolute decline >20% from baseline and/or a reduction to <39%. Except for the above categories, all grade ≥ 3 adverse events (AEs) without a definitive alternative etiology were also considered DLTs. AEs detected or worsened in cycle 2 and beyond could be incorporated into dose-escalation decisions at discretion of the investigators and study team.
The MTD was to be continually re-estimated by a logistic regression model as the dose at which the predicted DLT rate would be 30%. For the three arms, dose-escalation decisions were made after the patient(s) in a cohort completed dosing in cycle 1.
In Arm I, dosing commenced at 10 mg PO QD and was escalated to 180 mg PO QD. This initial starting dose was calculated using 1/6 of the highest non-severely toxic dose in dogs converted to human equivalent dose, using body surface area scaling and assuming a 60-kg human. Because of uncertainty of food effects on pharmacokinetics and the […] schedule, treatment was administered in a fasted state. […] Enrolment to Arm I was discontinued, on the basis of the protocol-specified continual reassessment method on which MTD was to be determined. […] This schedule was selected due to the anticipated lower maximum observed plasma concentration (Cmax) and greater total exposure, and the possibility that tolerability would be improved under these conditions. Dose escalation proceeded in Arm II, starting at 40 mg PO BID, and stopped at the 340-mg PO BID dose, since this dose met the protocol criteria for exceeding the MTD. The first dose was administered in the fasted state. The second dose of the treatment day was administered at least 4 h after a small meal. […]

Aurora kinase B = assay: pHH3 immunohistochemistry in skin punch biopsies; type: in vivo, human; conditions: 8 mg i.v. and 60‒340 mg PO BID
Aurora A [2] = system: Aurora A; set-up: method as in PMID 22935731; conditions: 1 mM ATP; read-out: Biochemical IC50 (95% confidence limits); cited from earlier work
Aurora B (Y156H) = system: Aurora B (Y156H); set-up: method as in PMID 22935731; conditions: Y156H mutant, 1 mM ATP; read-out: Biochemical IC50 (95% confidence limits); cited from earlier work
Aurora C = system: Aurora C; set-up: method as in PMID 22935731; conditions: 1 mM ATP; read-out: Biochemical IC50 (95% confidence limits); cited from earlier work
VEGFR1 = system: VEGFR1; set-up: method as in PMID 22935731; conditions: 1 mM ATP; read-out: Biochemical IC50 (95% confidence limits); cited from earlier work
VEGFR2 = system: VEGFR2; set-up: method as in PMID 22935731; conditions: 1 mM ATP; read-out: Biochemical IC50 (95% confidence limits); cited from earlier work
VEGFR3 = system: VEGFR3; set-up: method as in PMID 22935731; conditions: 1 mM ATP; read-out: Biochemical IC50 (95% confidence limits); cited from earlier work
FLT-3 = system: FLT-3; set-up: method as in PMID 22935731; conditions: 1 mM ATP; read-out: Biochemical IC50 (95% confidence limits); cited from earlier work
c-KIT [3] = system: c-KIT; set-up: method as in PMID 22935731; conditions: 1 mM ATP; read-out: Biochemical IC50 (95% confidence limits); cited from earlier work
Aurora A [4] = system: Aurora A; set-up: method as in PMID 22935731; conditions: Aurora A autophosphorylation, nocodazole-arrested HeLa cells; read-out: Cellular PD marker IC50 (95% confidence limits); cited from earlier work
Aurora B [5] = system: Aurora B; set-up: method as in PMID 22935731; conditions: Aurora B autophosphorylation, nocodazole-arrested HeLa cells; read-out: Cellular PD marker IC50 (95% confidence limits); cited from earlier work
Aurora B [6] = system: Aurora B; set-up: method as in PMID 22935731; conditions: phosphorylation of histone H3, read-out: Cellular PD marker IC50 (95% confidence limits); cited from earlier work
[7] = system: TEL:VEGFR1 catalytic domain fusion; set-up: method as in PMID 22935731; conditions: BaF3 cells expressing TEL:VEGFR1, proliferation as surrogate readout; read-out: Cellular PD marker IC50 (95% confidence limits); cited from earlier work
CSF-1R = system: CSF-1R; set-up: method as in PMID 22935731; conditions: CSF-1R cellular phosphorylation, ligand stimulated; read-out: Cellular PD marker IC50 (95% confidence limits); cited from earlier work
c-KIT [8] = system: c-KIT; set-up: method as in PMID 22935731; conditions: KIT cellular phosphorylation, ligand stimulated; read-out: Cellular PD marker IC50 (95% confidence limits); cited from earlier work
PDGFR-α = system: PDGFR-α; set-up: method as in PMID 22935731; conditions: PDGFR-α cellular phosphorylation, ligand stimulated; read-out: Cellular PD marker IC50 (95% confidence limits); cited from earlier work
PDGFR-β = system: PDGFR-β; set-up: method as in PMID 22935731; conditions: PDGFR-β cellular phosphorylation, ligand stimulated; read-out: Cellular PD marker IC50 (95% confidence limits); cited from earlier work

Nc1ncc(-c2cnn(CCO)c2)c2scc(-c3ccc(NC(=O)Nc4cccc(F)c4)cc3)c12 [ilorasertib, Ilorasertib]
Dose that met the protocol criteria for exceeding the MTD ([1]; Arm I, PO QD): 180 mg | Dose that met the protocol criteria for exceeding the MTD ([1]; Arm II, PO BID): 340 mg | Patients who experienced DLTs ([1]; human, in vivo, 1 cycle): 10% | Total number of DLTs ([1]; in vivo): ten | pHH3 in epidermis with increasing exposure (Aurora kinase B): dose-dependent decreases of pHH3 | IC50 (Aurora A [2]): […] | IC50 (Aurora B (Y156H)): […] | IC50 (Aurora C): 1 nM | IC50 (VEGFR1): 1 nM | IC50 (VEGFR2): 2 nM | IC50 (VEGFR3): 43 nM | IC50 (FLT-3): […] | IC50 (c-KIT [3]): 20 nM | IC50 (Aurora A [4]): […] | IC50 (Aurora B [5]): […] | IC50 (Aurora B [6]): […] | IC50 [7]: 0.3 nM | IC50 (CSF-1R): […] | IC50 (c-KIT [8]): 45 nM | IC50 (PDGFR-α): 16 nM | IC50 (PDGFR-β): 11 nM
